Columns and labels:
Assay in all cases: Histone peptide microarray
Format in all cases: binding, human
KDM5B (3) = conditions: sheet "Array Heatmap"; GST-tagged KDM5B (3); arrays performed twice, total replicate number n = 4
Description: (§1) To more comprehensively define the histone interactions of the 31 PHD readers identified from the domain microarray analyses, we probed each on an alternate microarray platform containing a library of 293 synthetic histone peptides with single or combinatorial PTMs (Additional file 2: Figure S4 and Additional file 3: Table S2).
(§2) The 31 GST-tagged PHD readers identified in the PHD finger domain array were expressed and purified as previously. Histone peptide arrays and peptide pulldown assays were conducted as recently described (specifically, the optimized protocol from Petell et al. for the former).
(§3) Supplementary file 13072_2020_328_MOESM3_ESM.xlsx: Additional file 3: Table S2. […] Excel Tab Peptide List is a compiled list of the entire 293 histone peptide library with amino acid sequence ranges. […] Each number corresponds to the peptide number designated in Peptide List. Excel Tab Average Signals is a compiled set of binding data: chromatin reader at 0.5 μM vs. entire 293 peptide library. Data is presented as the average and standard deviation of 4 replicates. The average signals are colored to indicate signal intensity with green being strong and white being weak/low. […] Key: red= stronger relative binding; blue = weaker relative binding. Excel Tab Array info summary is a table summarizing the domains, sequence coverage, array signal range, and noise for each of the GST-tagged readers assayed on the peptide microarrays.

DPF2 (PPC2W2) = conditions: sheet "Array Heatmap"; GST-tagged DPF2 (PPC2W2); arrays performed twice, total replicate number n = 4
Description: as §1, §2, §3

KDM7A = conditions: sheet "Array Heatmap"; GST-tagged KDM7A; arrays performed twice, total replicate number n = 4
Description: as §1, §2, §3

TRIM66 (PB) = conditions: sheet "Array Heatmap"; GST-tagged TRIM66 (PB); arrays performed twice, total replicate number n = 4
Description: as §1, §2, §3

ING5 = conditions: sheet "Array Heatmap"; GST-tagged ING5; arrays performed twice, total replicate number n = 4
Description: as §1, §2, §3

AIRE (PP) = conditions: sheet "Array Heatmap"; GST-tagged AIRE (PP); arrays performed twice, total replicate number n = 4
Description: as §1, §2, §3

MORC3 (CW) = conditions: sheet "Array Heatmap"; GST-tagged MORC3 (CW); arrays performed twice, total replicate number n = 4
Description: as §1, §2, §3

PHF13 = conditions: sheet "Array Heatmap"; GST-tagged PHF13; arrays performed twice, total replicate number n = 4
Description: as §1, §2, §3

CHD5 (PPCC) = conditions: sheet "Array Heatmap"; GST-tagged CHD5 (PPCC); arrays performed twice, total replicate number n = 4
Description: as §1, §2, §3

PHF23 = conditions: sheet "Array Heatmap"; GST-tagged PHF23; arrays performed twice, total replicate number n = 4
Description: as §1, §2, §3

KDM5A (3) = conditions: sheet "Array Heatmap"; GST-tagged KDM5A (3); arrays performed twice, total replicate number n = 4
Description: as §1, §2, §3

TAF3 = conditions: sheet "Array Heatmap"; GST-tagged TAF3; arrays performed twice, total replicate number n = 4
Description: as §1, §2, §3

PHF21A = conditions: sheet "Array Heatmap"; GST-tagged PHF21A; arrays performed twice, total replicate number n = 4
Description: as §1, §2, §3

KDM5B (1) = conditions: sheet "Array Heatmap"; GST-tagged KDM5B (1); arrays performed twice, total replicate number n = 4
Description: as §1, §2, §3

DIDO1 = conditions: sheet "Array Heatmap"; GST-tagged DIDO1; arrays performed twice, total replicate number n = 4
Description: as §1, §2, §3

KDM5A (1) = conditions: sheet "Array Heatmap"; GST-tagged KDM5A (1); arrays performed twice, total replicate number n = 4
Description: as §1, §2, §3

ING2 = conditions: sheet "Array Heatmap"; GST-tagged ING2; arrays performed twice, total replicate number n = 4
Description: as §1, §2, §3

BAZ2B = conditions: sheet "Array Heatmap"; GST-tagged BAZ2B; arrays performed twice, total replicate number n = 4
Description: as §1, §2, §3

ING1 = conditions: sheet "Array Heatmap"; GST-tagged ING1; arrays performed twice, total replicate number n = 4
Description: as §1, §2, §3

KDM4C (TTP) = conditions: sheet "Array Heatmap"; GST-tagged KDM4C (TTP); arrays performed twice, total replicate number n = 4
Description: as §1, §2, §3

PHF2 = conditions: sheet "Array Heatmap"; GST-tagged PHF2; arrays performed twice, total replicate number n = 4
Description: as §1, §2, §3

MLL5 = conditions: sheet "Array Heatmap"; GST-tagged MLL5; arrays performed twice, total replicate number n = 4
Description: as §1, §2, §3

SP140L = conditions: sheet "Array Heatmap"; GST-tagged SP140L; arrays performed twice, total replicate number n = 4
Description: as §1, §2, §3

BPTF (PB) = conditions: sheet "Array Heatmap"; GST-tagged BPTF (PB); arrays performed twice, total replicate number n = 4
Description: as §1, §2, §3

CHD5 (PCC) = conditions: sheet "Array Heatmap"; GST-tagged CHD5 (PCC); arrays performed twice, total replicate number n = 4
Description: as §1, §2, §3

ING4 = conditions: sheet "Array Heatmap"; GST-tagged ING4; arrays performed twice, total replicate number n = 4
Description: as §1, §2, §3

ING3 = conditions: sheet "Array Heatmap"; GST-tagged ING3; arrays performed twice, total replicate number n = 4
Description: as §1, §2, §3

CHD4 (PPCC) = conditions: sheet "Array Heatmap"; GST-tagged CHD4 (PPCC); arrays performed twice, total replicate number n = 4
Description: as §1, §2, §3

PHRF1 (RP) = conditions: sheet "Array Heatmap"; GST-tagged PHRF1 (RP); arrays performed twice, total replicate number n = 4
Description: as §1, §2, §3

RAG2 = conditions: sheet "Array Heatmap"; GST-tagged RAG2; arrays performed twice, total replicate number n = 4
Description: as §1, §2, §3

PHF8 = conditions: sheet "Array Heatmap"; GST-tagged PHF8; arrays performed twice, total replicate number n = 4
Description: as §1, §2, §3

Row | Substance | Array Heatmap signal, KDM5B (3) (KDM5B (3)) | Array Heatmap signal, DPF2 (PPC2W2) (DPF2 (PPC2W2)) | Array Heatmap signal, KDM7A (KDM7A) | Array Heatmap signal, TRIM66 (PB) (TRIM66 (PB)) | Array Heatmap signal, ING5 (ING5) | Array Heatmap signal, AIRE (PP) (AIRE (PP)) | Array Heatmap signal, MORC3 (CW) (MORC3 (CW)) | Array Heatmap signal, PHF13 (PHF13) | Array Heatmap signal, CHD5 (PPCC) (CHD5 (PPCC)) | Array Heatmap signal, PHF23 (PHF23) | Array Heatmap signal, KDM5A (3) (KDM5A (3)) | Array Heatmap signal, TAF3 (TAF3) | Array Heatmap signal, PHF21A (PHF21A) | Array Heatmap signal, KDM5B (1) (KDM5B (1)) | Array Heatmap signal, DIDO1 (DIDO1) | Array Heatmap signal, KDM5A (1) (KDM5A (1)) | Array Heatmap signal, ING2 (ING2) | Array Heatmap signal, BAZ2B (BAZ2B) | Array Heatmap signal, ING1 (ING1) | Array Heatmap signal, KDM4C (TTP) (KDM4C (TTP)) | also measured
1 | H3 30-49: H3 30-49 | 0.3902 | 0.6079 | 0.3271 | 0.5425 | 0.2813 | 0.3585 | 0.3313 | 0.5208 | 0.4615 | 0.4894 | 0.3525 | 0.2243 | 0.4117 | 0.5482 | 0.6094 | 0.3827 | 0.5897 | 0.368 | 0.4722 | 0.4088 | Array Heatmap signal, PHF2 (PHF2): 0.4841; Array Heatmap signal, MLL5 (MLL5): 0.4726; Array Heatmap signal, SP140L (SP140L): 0.3311; Array Heatmap signal, BPTF (PB) (BPTF (PB)): 0.2984; Array Heatmap signal, CHD5 (PCC) (CHD5 (PCC)): 0.7179; Array Heatmap signal, ING4 (ING4): 0.3885; Array Heatmap signal, ING3 (ING3): 0.4287; Array Heatmap signal, CHD4 (PPCC) (CHD4 (PPCC)): 0.528; Array Heatmap signal, PHRF1 (RP) (PHRF1 (RP)): 0.3713; Array Heatmap signal, RAG2 (RAG2): 0.2065; Array Heatmap signal, PHF8 (PHF8): 0.3204
2 | H3 105-124: H3 105-124 | 0.4564 | 0.5942 | 0.4014 | 0.6004 | 0.3472 | 0.5002 | 0.3313 | 0.6001 | 0.5675 | 0.5245 | 0.3849 | 0.2585 | 0.4845 | 0.6304 | 0.6132 | 0.4735 | 0.5916 | 0.4756 | 0.4905 | 0.5235 | Array Heatmap signal, PHF2 (PHF2): 0.4643; Array Heatmap signal, MLL5 (MLL5): 0.5209; Array Heatmap signal, SP140L (SP140L): 0.3548; Array Heatmap signal, BPTF (PB) (BPTF (PB)): 0.3405; Array Heatmap signal, CHD5 (PCC) (CHD5 (PCC)): 0.8446; Array Heatmap signal, ING4 (ING4): 0.4475; Array Heatmap signal, ING3 (ING3): 0.4768; Array Heatmap signal, CHD4 (PPCC) (CHD4 (PPCC)): 0.628; Array Heatmap signal, PHRF1 (RP) (PHRF1 (RP)): 0.3871; Array Heatmap signal, RAG2 (RAG2): 0.2418; Array Heatmap signal, PHF8 (PHF8): 0.3594
